From US8865744B1, “(Cyano-dimethyl-methyl)-isoxazoles and -[1,3,4]thiadiazoles” (Boehringer Ingelheim International GmbH, priority 2013, dated 2014)
Read-outs that look alike come from different tables or passages of the source.

What was measured:
[1] = target: T1, human CB2R (Homo sapiens, UniProt P34972); experiment: CB2 cAMP (Assay 1): In vitro testing of CB2 potency; format: cell-based
T1 construct: host or cells: CHO cells

[2] = target: T2, human CB1R (Homo sapiens, UniProt P21554); experiment: CB1 cAMP (Assay 2): In vitro testing of CB1 potency; format: cell-based
T2 construct: host or cells: CHO cells
T2 sequence (P21554 whole entry): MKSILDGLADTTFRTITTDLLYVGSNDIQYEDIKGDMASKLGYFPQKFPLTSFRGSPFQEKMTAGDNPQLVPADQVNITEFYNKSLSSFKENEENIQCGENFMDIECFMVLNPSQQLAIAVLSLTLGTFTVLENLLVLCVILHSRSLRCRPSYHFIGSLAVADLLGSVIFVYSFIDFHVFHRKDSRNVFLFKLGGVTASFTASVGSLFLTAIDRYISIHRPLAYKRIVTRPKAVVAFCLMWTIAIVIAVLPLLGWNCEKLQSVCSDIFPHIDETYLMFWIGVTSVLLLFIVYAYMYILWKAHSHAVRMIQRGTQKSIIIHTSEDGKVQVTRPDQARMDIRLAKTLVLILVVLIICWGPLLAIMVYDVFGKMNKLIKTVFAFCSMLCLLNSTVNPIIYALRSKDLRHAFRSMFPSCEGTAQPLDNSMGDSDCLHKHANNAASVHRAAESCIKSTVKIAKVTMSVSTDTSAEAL

T1 sequence (P34972 whole entry): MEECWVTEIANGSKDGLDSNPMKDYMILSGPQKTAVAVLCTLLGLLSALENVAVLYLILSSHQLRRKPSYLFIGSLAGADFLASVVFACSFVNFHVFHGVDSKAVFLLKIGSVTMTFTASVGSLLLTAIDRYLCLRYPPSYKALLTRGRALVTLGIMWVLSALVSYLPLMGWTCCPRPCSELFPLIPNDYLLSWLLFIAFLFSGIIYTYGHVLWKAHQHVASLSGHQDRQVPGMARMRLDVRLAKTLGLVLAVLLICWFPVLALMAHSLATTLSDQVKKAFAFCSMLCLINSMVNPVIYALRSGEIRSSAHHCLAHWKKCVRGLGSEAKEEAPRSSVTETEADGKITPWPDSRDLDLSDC

Row | EC50 ([1]; read-out: CB2 EC50) | EC50 ([2]; read-out: CB1 EC50) | Structure (SMILES) | EC50 [1] | EC50 [2]
1 |  |  | CC(C)(C#N)c1cc(NC(=O)C(C)(C)S(=O)(=O)CCCC(F)(F)F)on1 [Example 1, N-[3-(Cyano-dimethyl-methyl)-isoxazol-5-yl]-2-methyl-2-(4,4,4-trifluoro-butane-1-sulfonyl)-propionamide] | 18 nM | 104 µM
2 |  |  | CC(C)(CO)c1cc(NC(=O)C(C)(C)S(=O)(=O)C2CCOCC2)on1 [Example 2 in WO2010036630] |  | 150 µM
3 |  |  | CC(C)(C#N)c1cc(NC(=O)C(C)(C)S(=O)(=O)CC2CCOCC2)on1 [Example 2, N-[3-(Cyano-dimethyl-methyl)-isoxazol-5-yl]-2-methyl-2-(tetrahydro-pyran-4-ylmethanesulfonyl)-propionamide] | 104 nM | > 200 µM
4 | 8 nM | > 200 µM | CC(C)(C#N)c1cc(NC(=O)C(C)(C)S(=O)(=O)C2CCOCC2)on1 [Example 3] |  | 
5 | 0.36 nM | 39.4 µM | CN(CC1CCOCC1)C(C)(C)C(=O)Nc1cc(C(C)(C)C#N)no1 [Example 4] |  | 
6 | 0.23 nM | 2.5 µM | CN(C1CCN(S(C)(=O)=O)CC1)C(C)(C)C(=O)Nc1cc(C(C)(C)C#N)no1 [Example 5] |  | 
7 | 0.68 nM | 8.08 µM | CN(CC1CCOCC1)C(C)(C)C(=O)Nc1cc(C(C)(C)CO)no1 [Example 7 in WO2010147792] |  | 
8 |  |  | CN(CC1CCOCC1)C(C)(C)C(=O)Nc1nnc(C(C)(C)C#N)s1 [Example 7, N-[5-(Cyano-dimethyl-methyl)-[1,3,4]thiadiazol-2-yl]-2-methyl-2-[methyl(tetrahydro-pyran-4-ylmethyl)-amino]-propionamide] | 25 nM | > 200 µM
9 |  |  | CN(C1CCN(S(C)(=O)=O)CC1)C(C)(C)C(=O)Nc1nnc(C(C)(C)C#N)s1 [Example 8] | 4.3 nM | 69 µM
10 |  |  | COCC(C)(C)c1cc(NC(=O)C(C)(C)S(=O)(=O)CC2CCOCC2)on1 [Example 17 in WO2010036630] | 30 nM | 8.6 µM
11 | 0.27 nM | 0.923 µM | COCC(C)(C)c1cc(NC(=O)C(C)(C)N(C)CC2CCOCC2)on1 [Example 46 in WO2010147792] |  | 
12 | 0.85 nM | 3.1 µM | CN(C1CCN(S(C)(=O)=O)CC1)C(C)(C)C(=O)Nc1cc(C(C)(C)CO)no1 [Example 47 in WO2010147792] |  | 
13 |  |  | CC(C)(O)c1cc(NC(=O)C(C)(C)S(=O)(=O)C2CCOCC2)on1 [Example 133 WO2010036630] | 140 nM | > 200 µM

Row | Structure (SMILES) | EC50 ([1]; read-out: CB2 EC50) | EC50 ([2]; read-out: CB1 EC50) | EC50 [1] | EC50 [2]
14 | CC(C)(CO)c1cc(NC(=O)C(C)(C)S(=O)(=O)CC2CCOCC2)on1 [Example 1 in WO2010036630] | 88 nM |  |  | 
15 | CN(CC1CCOCC1)C(C)(C)C(=O)Nc1nnc(C(C)(C)CO)s1 [Example 30 in WO2010147792] | 5.4 nM | 120 µM |  | 
